Measured values: patent publication US6653529B2, “Use of the maize X112 mutant ahas 2 gene and imidazolinone herbicides for selection of transgenic monocots, maize, rice and wheat plants resistant to the imidazolinone herbicides” (BASF Aktiengesellschaft, priority 2000, dated 2003)

Assays:
transgenic rice Line 26 = experiment: Response of rice plants to various herbicides, seed set in greenhouse; assay type: in vivo; conditions: post-emergence, 1× g ai/ha: PURSUIT 62.5, CADRE 32, ARSENAL 24, RAPTOR 32, SCEPTER 125, ACCENT 35, CLASSIC 5, AC322,140 20, LONDAX 68
Text: (§1) A total of 9 herbicides, 5 imidazolinones, two rice herbicides and ACCENT® (nicosulfuron) and CLASSIC® (clorimuron-ethyl) were applied in this study. Materials and methods were basically the same as described above, except that instead of 6″ pots, flats with 18 (3″×3″ per cell) cells were used, and 10-12 seeds were planted to one 3″×3″ cell. Ten plants were maintained in one cell in the post-emergence application. Each herbicide was sprayed at 4 different rates, 1, 2, 4, and 6×, as either pre or post-emergence applications with three replications per treatment. The name and amount of herbicide applied in this experiment and information relevant to their commercial applications are listed in Table 3. For simplicity and convenience, the lowest concentration used is referred as 1× rate, 2, 4 and 6× rates can be calculated as multiples of 1×.
(§2) To monitor plant response to various herbicides, data on fresh weight was collected. For pre-emergence applications, all plants from one cell were harvested 32 days after spraying (36-day old plants) and weighed. Twenty-nine days after herbicide application, 5 plants (44-day old plants) from each cell in the post-emergence application, were cut and weighed individually. Mean fresh weight for each treatment was calculated over three replications. The remaining 5 plants were grown in the greenhouse to maturity at which time, panicles of 3 plants were collected, and number of filled seeds and number of total kernels were counted to determine percentage of seed set.

transgenic rice Line 29 = experiment: as above; assay type: in vivo; conditions: post-emergence, 1× g ai/ha: PURSUIT 62.5, CADRE 32, ARSENAL 24, RAPTOR 32, SCEPTER 125, ACCENT 35, CLASSIC 5, AC322,140 20, LONDAX 68
Text: as §1, §2

[1] = system: untransformed Nt rice plants; experiment: as above; assay type: in vivo; conditions: post-emergence, 1× g ai/ha: PURSUIT 62.5, CADRE 32, ARSENAL 24, RAPTOR 32, SCEPTER 125, ACCENT 35, CLASSIC 5, AC322,140 20, LONDAX 68
Text: as §1, §2

[2] = system: rice plants (transgenic Lines 26 and 29; Nt control); experiment: Greenhouse herbicide tests on rice; assay type: in vivo
Text: We evaluated the response of transgenic rice to PURSUIT® imazethapyr application in the greenhouse. In this experiment, we included 2 transgenic lines and their untransformed counterpart (Nt). The transgenic lines, designated as Line 26 and 29, were T3 progeny derived from previously identified homozygous resistant transgenic plants containing the maize XI12 ahas2 gene driven by its own promoter. All seeds were pre-germinated in water for 2-3 days then grown in a planting mixture consisting of 1:1 soil and MetroMix 360 (The Scotts Company, Marysville, Ohio 43040) in 6-inch pots (2 seeds per pot) in the greenhouse and sprayed with PURSUIT® imazethapyr at 63, 125, or 250 g ai/ha. For post-emergence application, the plants were sprayed 15 days after seeding, at which time most plants had 3 leaves. For pre-emergence treatment, PURSUIT® imazethapyr was sprayed one day after seeding. Each treatment contained 20 plants and, and 3 replicates per treatment. One set of materials was not sprayed and used as control. The plants were grown in the greenhouse and harvested at maturity. The amount of PURSUIT® imazethapyr applied in this study (63, 125, or 250 g ai/ha) was close to 1, 2 or 4× field application rate for imi-resistant corn (refer to Table 3) since PURSUIT® imazethapyr is not currently labeled for use in rice fields. A custom designed belt sprayer was operated as described (Newhouse et al. 1992) for all herbicide applications. Five plants from each treatment were randomly chosen and individually measured for morphological traits. Means and standard deviations were calculated over three replications. Plant heights were measured from the base of the plant to the tip of the flag leaf 93 days after herbicide applications (DAH) and number of tillers per plant were counted 102-103 DAH. Data on number of panicles per plant and yield were collected after plants were harvested.
as §1, §2

[3] = system: AHAS (acetohydroxyacid synthase) in extracts of Nortai, Line 26 and Line 29; experiment: In vitro AHAS activity assay; assay type: biochemical, rice; conditions: Nt, Line 26, Line 29; FIG. 2
Method: Previously published procedures were used for the extraction and in vitro assay for AHAS activity (Singh et al. 1988). Lower portions of the shoots were used as the source of plant tissue for the assay. The desalted crude extracts were used for the in vitro enzyme assays. Acetolactate produced by the enzyme was converted to acetoin, which was measured by the Westerfield assay system.
In vitro AHAS assays were performed to understand the basis of herbicide tolerance in the transgenic plants. Previously published procedure was used for the extraction and in vitro assay for AHAS activity (Singh et al. 1988). The lower portions of the shoots were used as the source of plant tissue for the assay. The desalted crude extracts were used for the in vitro enzyme assays. Acetolactate produced by the enzyme was converted to acetoin, which was measured by the Westerfield assay system (Westerfield 1945). The specific activity of AHAS was about 30% higher in Line 26 (67 nmoles/mg protein/h) and Line 29 (64 nmoles/mg protein/h) compared to the activity in Nortai (Nt) (50 nmoles/mg protein/h).

[4] = system: transgenic rice containing 35S/als transgene; conditions: cited from earlier work

## COC(=O)c1ccccc1CS(=O)(=O)NC(=O)Nc1nc(OC)cc(OC)n1 [LONDAX ®, bensulfuron-methyl]
Transgenic rice Line 26; 1× rate
  % seed-set: 80%
  No. filled seeds/3 panicles: 140
  Total No. of kernels/3 panicles: 173
Transgenic rice Line 26; 2× rate
  % seed-set: 90%
  No. filled seeds/3 panicles: 140
  Total No. of kernels/3 panicles: 156
Transgenic rice Line 26; 4× rate
  % seed-set: 65%
  No. filled seeds/3 panicles: 102
  Total No. of kernels/3 panicles: 136
Transgenic rice Line 26; 6× rate
  % seed-set: 89%
  No. filled seeds/3 panicles: 127
  Total No. of kernels/3 panicles: 143
Transgenic rice Line 29; 1× rate
  % seed-set: 80%
  No. filled seeds/3 panicles: 125
  Total No. of kernels/3 panicles: 156
Transgenic rice Line 29; 2× rate
  % seed-set: 90%
  No. filled seeds/3 panicles: 133
  Total No. of kernels/3 panicles: 148
Transgenic rice Line 29; 4× rate
  % seed-set: 87%
  No. filled seeds/3 panicles: 155
  Total No. of kernels/3 panicles: 177
Transgenic rice Line 29; 6× rate
  % seed-set: 86%
  No. filled seeds/3 panicles: 150
  Total No. of kernels/3 panicles: 175
[1]; 1× rate
  % seed-set: 85%
  No. filled seeds/3 panicles: 147
  Total No. of kernels/3 panicles: 172
[1]; 2× rate
  % seed-set: 93%
  No. filled seeds/3 panicles: 142
  Total No. of kernels/3 panicles: 154
[1]; 4× rate
  % seed-set: 91%
  No. filled seeds/3 panicles: 113
  Total No. of kernels/3 panicles: 127
[1]; 6× rate
  % seed-set: 96%
  No. filled seeds/3 panicles: 109
  Total No. of kernels/3 panicles: 114
[2]; transgenic and control plants
  effect on growth of all plants treated: minimal effect

## CC(C)C1(C)N=C(c2nc3ccccc3cc2C(=O)O)NC1=O (stereo not shown) [SCEPTER ®, imazaquin]
Transgenic rice Line 26; 1× rate
  % seed-set: 86%
  No. filled seeds/3 panicles: 148
  Total No. of kernels/3 panicles: 172
Transgenic rice Line 26; 2× rate
  % seed-set: 64%
  No. filled seeds/3 panicles: 87
  Total No. of kernels/3 panicles: 135
Transgenic rice Line 26; 4× rate
  % seed-set: 88%
  No. filled seeds/3 panicles: 147
  Total No. of kernels/3 panicles: 166
Transgenic rice Line 26; 6× rate
  % seed-set: 62%
  No. filled seeds/3 panicles: 86
  Total No. of kernels/3 panicles: 109
Transgenic rice Line 29; 1× rate
  % seed-set: 87%
  No. filled seeds/3 panicles: 138
  Total No. of kernels/3 panicles: 159
Transgenic rice Line 29; 2× rate
  % seed-set: 86%
  No. filled seeds/3 panicles: 143
  Total No. of kernels/3 panicles: 165
Transgenic rice Line 29; 4× rate
  % seed-set: 85%
  No. filled seeds/3 panicles: 131
  Total No. of kernels/3 panicles: 155
Transgenic rice Line 29; 6× rate
  % seed-set: 88%
  No. filled seeds/3 panicles: 139
  Total No. of kernels/3 panicles: 159
[1]; 1× rate
  % seed-set: 0%
  No. filled seeds/3 panicles: 0
  Total No. of kernels/3 panicles: 0
[1]; 2× rate
  % seed-set: 0%
  No. filled seeds/3 panicles: 0
  Total No. of kernels/3 panicles: 0
[1]; 4× rate
  % seed-set: 0%
  No. filled seeds/3 panicles: 0
  Total No. of kernels/3 panicles: 0
[1]; 6× rate
  % seed-set: 0%
  No. filled seeds/3 panicles: 0
  Total No. of kernels/3 panicles: 0
[2]; PURSUIT, RAPTOR, CADRE, SCEPTER at all rates tested, ARSENAL 1 to 2×
  average seed set in two transgenic lines: about 85%
[2]; post-emergence, fresh weight and visual observation
  rate at which growth of transgenic plants was slightly affected: 6 ×
[2]; pre-emergence
  rate at which growth of both transgenic lines was affected: ≥ 2 ×

## COc1nc(C)nc(NC(=O)NS(=O)(=O)c2ccccc2Cl)n1 [chlorsulfuron]
[3]
  inhibition of AHAS activity from all three lines: inhibited in a similar manner
[4]; Arabidopsis ALS promoter replaced with CaMV35S promoter (Li et al. 1992)
  differences in in vitro resistance: 40 fold
[4]; transgenic rice containing 35S/als transgene (Li et al. 1992)
  increase in in vitro resistance: 200 fold
